Assay results: BindingDB's records for patent US10343992 (Missions Therapeutics, 2019)

Biological target: T1, Ubiquitin carboxyl-terminal hydrolase 30 (Homo sapiens, UniProt Q70CQ3)
T1 sequence (Q70CQ3 whole entry): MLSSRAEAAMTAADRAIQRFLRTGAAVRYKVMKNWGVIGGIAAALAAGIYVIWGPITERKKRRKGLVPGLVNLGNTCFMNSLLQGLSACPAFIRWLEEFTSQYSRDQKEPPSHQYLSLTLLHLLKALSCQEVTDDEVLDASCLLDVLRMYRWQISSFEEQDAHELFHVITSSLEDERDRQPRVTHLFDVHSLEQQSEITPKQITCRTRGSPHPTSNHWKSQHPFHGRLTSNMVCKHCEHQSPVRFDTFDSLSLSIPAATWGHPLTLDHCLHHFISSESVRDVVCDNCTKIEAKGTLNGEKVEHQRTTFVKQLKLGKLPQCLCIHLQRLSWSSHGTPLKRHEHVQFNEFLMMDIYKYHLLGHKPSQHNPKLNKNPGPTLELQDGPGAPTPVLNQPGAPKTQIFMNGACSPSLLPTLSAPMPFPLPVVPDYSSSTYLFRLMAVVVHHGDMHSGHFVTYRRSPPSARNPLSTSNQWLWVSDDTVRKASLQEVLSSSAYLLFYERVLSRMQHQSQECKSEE
Experiment: Biochemical Fluorescence Intensity Assay
Procedure: A typical 8-point dilution series would be 100, 30, 10, 3, 1, 0.3, 0.1, 0.03 μM final. […] USP30 was diluted in reaction buffer (40 mM Tris, pH 7.5, 0.005% Tween 20, 0.5 mg/ml BSA, 5 mM beta-mercaptoethanol) to the equivalent of 0.001 μl/well and 10 μl of diluted USP30 was added to the compound. Enzyme and compound were incubated for 30 min at room temp. […] Reactions were read immediately after addition of substrate and following a 2 h incubation at room temperature.

IC50 | SMILES
in the range around 550 nM | Cn1ccc(-c2ccc(NC(=O)N3CC[C@@H]4CN(C#N)C[C@@H]43)c(F)c2)n1 [US10343992, Example 245]
in the range around 550 nM | CN(C(=O)CC1=NC2C=C(c3cnn(C)c3)N=CC2N1)C1CCN(C#N)C1 (configuration not stated) [US10343992, Example 263]
